For 21 compounds, AC50 results are on record in ChEMBL document CHEMBL5291721, “A preclinical secondary pharmacology resource illuminates target-adverse drug reaction associations of marketed drugs” (Nat Commun, 2023).

A value given as a limit tells only on which side of the number the result lay.

The target in test [1] is T1, Muscarinic acetylcholine receptor M4 (Homo sapiens, UniProt P08173).
T1 sequence (P08173 whole entry): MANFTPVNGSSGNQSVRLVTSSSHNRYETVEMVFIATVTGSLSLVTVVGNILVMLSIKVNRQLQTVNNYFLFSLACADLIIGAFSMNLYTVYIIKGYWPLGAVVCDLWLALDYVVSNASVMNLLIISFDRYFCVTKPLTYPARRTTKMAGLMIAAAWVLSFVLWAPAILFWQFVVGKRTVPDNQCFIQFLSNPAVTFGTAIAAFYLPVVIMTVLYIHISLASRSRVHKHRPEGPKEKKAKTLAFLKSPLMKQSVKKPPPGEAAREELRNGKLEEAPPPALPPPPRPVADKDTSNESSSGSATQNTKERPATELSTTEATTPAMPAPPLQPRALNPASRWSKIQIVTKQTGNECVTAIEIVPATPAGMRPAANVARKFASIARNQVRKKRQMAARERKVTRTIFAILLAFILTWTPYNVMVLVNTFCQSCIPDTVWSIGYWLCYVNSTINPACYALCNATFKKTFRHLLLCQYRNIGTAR

For test [2], the target named is Rod cGMP-specific 3',5'-cyclic phosphodiesterase subunit alpha (Homo sapiens, UniProt P16499). The class given is functional.
Chain of Rod cGMP-specific 3',5'-cyclic phosphodiesterase subunit alpha (P16499 whole entry): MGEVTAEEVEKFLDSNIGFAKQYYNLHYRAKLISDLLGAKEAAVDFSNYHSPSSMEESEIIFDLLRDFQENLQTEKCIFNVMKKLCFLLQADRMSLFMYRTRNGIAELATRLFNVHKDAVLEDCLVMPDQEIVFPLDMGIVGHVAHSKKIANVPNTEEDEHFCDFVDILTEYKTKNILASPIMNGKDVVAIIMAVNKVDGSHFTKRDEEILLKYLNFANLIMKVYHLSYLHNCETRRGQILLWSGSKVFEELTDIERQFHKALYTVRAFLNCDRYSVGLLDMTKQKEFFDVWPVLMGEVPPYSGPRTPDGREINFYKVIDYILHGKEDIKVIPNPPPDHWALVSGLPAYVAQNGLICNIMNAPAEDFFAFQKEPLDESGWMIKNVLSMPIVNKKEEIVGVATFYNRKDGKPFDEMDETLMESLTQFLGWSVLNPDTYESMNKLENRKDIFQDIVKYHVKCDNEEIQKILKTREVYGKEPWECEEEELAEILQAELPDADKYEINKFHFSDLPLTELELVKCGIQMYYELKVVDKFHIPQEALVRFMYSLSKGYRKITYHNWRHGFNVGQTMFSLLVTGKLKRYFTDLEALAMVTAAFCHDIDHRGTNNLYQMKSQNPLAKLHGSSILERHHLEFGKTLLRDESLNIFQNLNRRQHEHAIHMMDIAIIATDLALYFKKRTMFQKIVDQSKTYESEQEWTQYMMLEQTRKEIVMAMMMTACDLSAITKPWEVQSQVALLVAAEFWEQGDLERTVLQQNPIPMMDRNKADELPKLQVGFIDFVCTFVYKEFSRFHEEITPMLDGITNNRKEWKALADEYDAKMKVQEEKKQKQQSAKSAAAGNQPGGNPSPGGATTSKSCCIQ
Test [3] addresses T2, Alpha-1A adrenergic receptor (Homo sapiens, UniProt P35348).
T2 sequence (P35348 whole entry): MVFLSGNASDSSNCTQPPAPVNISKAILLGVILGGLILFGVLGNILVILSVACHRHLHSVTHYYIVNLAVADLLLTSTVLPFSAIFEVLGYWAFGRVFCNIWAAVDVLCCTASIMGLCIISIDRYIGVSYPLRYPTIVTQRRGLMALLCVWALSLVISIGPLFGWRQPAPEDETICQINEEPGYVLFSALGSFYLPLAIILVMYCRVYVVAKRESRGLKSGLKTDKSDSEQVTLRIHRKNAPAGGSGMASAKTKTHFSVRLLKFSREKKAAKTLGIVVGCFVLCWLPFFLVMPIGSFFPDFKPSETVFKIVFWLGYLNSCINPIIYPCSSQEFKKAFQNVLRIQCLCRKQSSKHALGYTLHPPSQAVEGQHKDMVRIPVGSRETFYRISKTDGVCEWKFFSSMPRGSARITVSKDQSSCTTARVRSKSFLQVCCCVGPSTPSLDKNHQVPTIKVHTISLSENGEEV

The target in test [4] is T3, Histamine H1 receptor (Homo sapiens, UniProt P35367). The class given is functional, cell-based.
T3 sequence (P35367 whole entry): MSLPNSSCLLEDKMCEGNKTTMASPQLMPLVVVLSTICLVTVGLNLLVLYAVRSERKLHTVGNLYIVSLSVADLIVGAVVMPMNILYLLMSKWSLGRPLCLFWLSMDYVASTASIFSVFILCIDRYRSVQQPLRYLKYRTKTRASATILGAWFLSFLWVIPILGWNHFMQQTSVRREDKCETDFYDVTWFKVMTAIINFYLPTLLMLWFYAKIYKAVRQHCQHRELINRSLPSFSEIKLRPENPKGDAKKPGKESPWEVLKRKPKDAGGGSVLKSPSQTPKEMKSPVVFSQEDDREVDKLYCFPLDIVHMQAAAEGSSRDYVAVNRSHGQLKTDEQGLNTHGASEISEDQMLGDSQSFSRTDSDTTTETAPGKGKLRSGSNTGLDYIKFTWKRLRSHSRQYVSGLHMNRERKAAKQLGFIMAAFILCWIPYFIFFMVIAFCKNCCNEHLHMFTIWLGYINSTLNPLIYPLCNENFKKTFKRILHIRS
For test [5], the target named is T3, Histamine H1 receptor. The class given is functional, cell-based. The source holds these as a separate data set.
Test [6] addresses T4, Muscarinic acetylcholine receptor M2 (Homo sapiens, UniProt P08172).
T4 sequence (P08172 whole entry): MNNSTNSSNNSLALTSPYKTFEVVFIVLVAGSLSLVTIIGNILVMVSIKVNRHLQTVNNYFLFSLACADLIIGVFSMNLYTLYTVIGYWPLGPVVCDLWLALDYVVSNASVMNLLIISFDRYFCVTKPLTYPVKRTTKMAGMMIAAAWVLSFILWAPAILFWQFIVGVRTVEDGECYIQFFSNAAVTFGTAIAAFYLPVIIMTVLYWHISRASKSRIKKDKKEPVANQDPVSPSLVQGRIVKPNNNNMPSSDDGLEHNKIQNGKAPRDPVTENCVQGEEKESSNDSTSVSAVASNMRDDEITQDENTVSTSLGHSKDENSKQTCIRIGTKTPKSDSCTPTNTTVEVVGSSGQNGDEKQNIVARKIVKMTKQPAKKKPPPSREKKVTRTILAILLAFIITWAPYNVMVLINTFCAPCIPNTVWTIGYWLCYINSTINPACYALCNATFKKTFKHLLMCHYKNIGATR

Test [7] addresses T5, 5-hydroxytryptamine receptor 1A (Homo sapiens, UniProt P08908).
T5 sequence (P08908 whole entry): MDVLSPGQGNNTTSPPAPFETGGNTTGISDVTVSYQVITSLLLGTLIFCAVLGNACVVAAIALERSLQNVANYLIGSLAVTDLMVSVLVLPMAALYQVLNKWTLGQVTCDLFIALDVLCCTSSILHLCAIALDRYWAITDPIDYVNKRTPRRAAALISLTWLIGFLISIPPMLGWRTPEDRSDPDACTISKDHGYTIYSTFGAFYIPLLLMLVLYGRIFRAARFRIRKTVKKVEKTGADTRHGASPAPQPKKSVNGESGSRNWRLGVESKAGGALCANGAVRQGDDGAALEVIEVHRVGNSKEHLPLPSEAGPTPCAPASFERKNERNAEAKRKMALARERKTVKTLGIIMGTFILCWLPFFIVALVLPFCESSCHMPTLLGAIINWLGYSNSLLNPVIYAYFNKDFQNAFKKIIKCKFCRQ

The target of test [8] is T6, D(1A) dopamine receptor (Homo sapiens, UniProt P21728).
T6 sequence (P21728 whole entry): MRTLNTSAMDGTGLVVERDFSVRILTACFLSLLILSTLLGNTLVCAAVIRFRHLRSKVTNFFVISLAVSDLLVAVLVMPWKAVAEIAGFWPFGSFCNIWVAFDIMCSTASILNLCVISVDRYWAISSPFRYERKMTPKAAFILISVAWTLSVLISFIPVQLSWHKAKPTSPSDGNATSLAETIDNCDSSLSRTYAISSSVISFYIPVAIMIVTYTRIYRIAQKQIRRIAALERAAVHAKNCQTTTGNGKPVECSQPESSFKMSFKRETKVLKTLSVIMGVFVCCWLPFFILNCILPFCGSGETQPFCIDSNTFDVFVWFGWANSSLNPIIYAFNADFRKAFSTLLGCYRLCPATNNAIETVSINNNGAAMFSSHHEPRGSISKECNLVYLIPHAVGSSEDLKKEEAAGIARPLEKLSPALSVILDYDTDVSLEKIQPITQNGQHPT
In test [9] the target is Receptor tyrosine-protein kinase erbB-2 (Homo sapiens, UniProt P04626). The class given is functional.
Chain of Receptor tyrosine-protein kinase erbB-2 (P04626 whole entry): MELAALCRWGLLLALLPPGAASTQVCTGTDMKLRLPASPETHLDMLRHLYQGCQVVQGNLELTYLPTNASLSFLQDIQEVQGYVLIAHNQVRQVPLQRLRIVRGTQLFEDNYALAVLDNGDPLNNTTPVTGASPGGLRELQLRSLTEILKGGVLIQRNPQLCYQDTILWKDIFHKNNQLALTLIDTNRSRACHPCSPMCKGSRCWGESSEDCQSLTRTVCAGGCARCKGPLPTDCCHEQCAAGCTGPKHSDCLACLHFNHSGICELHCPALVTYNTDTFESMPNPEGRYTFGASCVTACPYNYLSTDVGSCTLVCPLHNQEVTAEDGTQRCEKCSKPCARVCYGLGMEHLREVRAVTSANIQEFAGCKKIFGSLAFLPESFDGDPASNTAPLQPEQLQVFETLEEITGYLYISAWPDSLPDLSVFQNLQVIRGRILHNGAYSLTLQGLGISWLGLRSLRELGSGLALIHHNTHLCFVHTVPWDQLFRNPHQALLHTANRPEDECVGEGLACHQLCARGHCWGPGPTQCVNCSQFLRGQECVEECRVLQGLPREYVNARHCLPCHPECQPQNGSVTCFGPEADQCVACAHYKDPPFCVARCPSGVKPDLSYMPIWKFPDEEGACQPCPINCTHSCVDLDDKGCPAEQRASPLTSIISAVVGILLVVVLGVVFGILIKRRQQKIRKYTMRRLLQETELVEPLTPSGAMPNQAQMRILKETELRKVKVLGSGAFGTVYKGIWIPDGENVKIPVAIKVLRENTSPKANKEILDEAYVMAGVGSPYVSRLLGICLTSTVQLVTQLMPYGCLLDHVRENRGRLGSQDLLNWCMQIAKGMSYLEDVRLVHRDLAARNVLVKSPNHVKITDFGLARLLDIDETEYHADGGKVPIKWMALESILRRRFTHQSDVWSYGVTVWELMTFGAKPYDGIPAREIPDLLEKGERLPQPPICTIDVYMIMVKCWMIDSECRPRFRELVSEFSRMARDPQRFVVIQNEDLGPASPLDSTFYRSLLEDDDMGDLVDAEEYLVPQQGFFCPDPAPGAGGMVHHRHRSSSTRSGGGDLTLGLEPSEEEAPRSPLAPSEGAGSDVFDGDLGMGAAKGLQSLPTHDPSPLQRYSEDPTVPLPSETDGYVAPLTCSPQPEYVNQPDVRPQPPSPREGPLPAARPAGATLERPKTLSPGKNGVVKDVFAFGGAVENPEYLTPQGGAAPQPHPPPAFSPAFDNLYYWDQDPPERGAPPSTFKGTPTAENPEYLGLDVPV
Test [10] has as its target Epidermal growth factor receptor (Homo sapiens, UniProt P00533). The class given is functional.
The target of test [11] is T6, D(1A) dopamine receptor. The class given is functional, cell-based.
Test [12] addresses T6, D(1A) dopamine receptor. The source holds these as a separate data set.
Test [13] deals with T7, Peroxisome proliferator-activated receptor alpha (Homo sapiens, UniProt Q07869).
T7 sequence (Q07869 whole entry): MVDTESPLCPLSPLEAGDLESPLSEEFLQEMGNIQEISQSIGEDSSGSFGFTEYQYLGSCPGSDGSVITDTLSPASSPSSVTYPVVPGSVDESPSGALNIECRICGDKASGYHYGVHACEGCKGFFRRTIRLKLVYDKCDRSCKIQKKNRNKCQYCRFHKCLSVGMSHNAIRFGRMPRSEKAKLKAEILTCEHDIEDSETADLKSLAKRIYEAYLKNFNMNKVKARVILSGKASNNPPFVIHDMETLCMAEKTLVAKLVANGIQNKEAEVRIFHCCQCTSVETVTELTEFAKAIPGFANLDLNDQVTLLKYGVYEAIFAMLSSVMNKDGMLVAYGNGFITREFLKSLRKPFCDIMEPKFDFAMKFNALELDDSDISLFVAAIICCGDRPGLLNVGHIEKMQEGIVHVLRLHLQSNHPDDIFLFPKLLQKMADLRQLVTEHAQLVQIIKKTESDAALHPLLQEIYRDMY
The class given is functional.

Test [14] has as its target T7, Peroxisome proliferator-activated receptor alpha. The class given is functional. The source holds these as a separate data set.
Further: assay procedure not described here.

Chain of Epidermal growth factor receptor (P00533 whole entry): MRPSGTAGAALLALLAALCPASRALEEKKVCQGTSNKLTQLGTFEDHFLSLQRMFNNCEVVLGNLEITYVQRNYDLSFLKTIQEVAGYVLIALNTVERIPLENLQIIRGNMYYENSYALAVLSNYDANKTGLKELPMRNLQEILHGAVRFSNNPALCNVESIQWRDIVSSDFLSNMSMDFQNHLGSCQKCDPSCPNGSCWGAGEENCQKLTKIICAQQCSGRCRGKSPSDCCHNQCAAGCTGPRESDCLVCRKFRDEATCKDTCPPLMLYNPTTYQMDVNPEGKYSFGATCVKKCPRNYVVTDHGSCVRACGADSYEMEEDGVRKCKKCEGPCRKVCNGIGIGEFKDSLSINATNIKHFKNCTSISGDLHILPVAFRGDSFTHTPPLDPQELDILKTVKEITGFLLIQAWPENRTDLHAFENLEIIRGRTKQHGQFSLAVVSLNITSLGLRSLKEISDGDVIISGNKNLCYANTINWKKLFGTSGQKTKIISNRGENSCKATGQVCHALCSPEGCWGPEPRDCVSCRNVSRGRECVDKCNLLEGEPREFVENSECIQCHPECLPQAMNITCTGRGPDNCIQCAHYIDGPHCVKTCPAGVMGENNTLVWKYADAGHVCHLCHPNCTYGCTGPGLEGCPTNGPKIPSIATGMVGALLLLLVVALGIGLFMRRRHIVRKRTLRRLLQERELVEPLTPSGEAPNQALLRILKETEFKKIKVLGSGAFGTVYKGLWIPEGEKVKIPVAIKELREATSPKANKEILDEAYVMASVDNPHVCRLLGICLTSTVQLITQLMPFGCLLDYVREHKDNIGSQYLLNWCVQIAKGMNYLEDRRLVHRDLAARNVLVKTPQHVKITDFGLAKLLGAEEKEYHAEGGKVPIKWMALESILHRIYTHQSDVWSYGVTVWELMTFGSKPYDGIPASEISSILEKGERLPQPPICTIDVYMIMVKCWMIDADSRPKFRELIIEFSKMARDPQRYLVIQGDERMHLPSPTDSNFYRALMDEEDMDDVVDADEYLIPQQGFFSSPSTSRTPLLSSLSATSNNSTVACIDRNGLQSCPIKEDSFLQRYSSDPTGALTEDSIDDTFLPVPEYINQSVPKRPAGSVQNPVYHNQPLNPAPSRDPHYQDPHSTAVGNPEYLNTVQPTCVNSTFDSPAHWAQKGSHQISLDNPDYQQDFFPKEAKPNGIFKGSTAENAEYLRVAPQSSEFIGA

In general, AC50 refers to the concentration at which the activity in the assay is half-maximal. High values mean weaker potency, low ones greater potency. As for `NC(N)=Nc1nc(CSCCC(N)=NS(N)(=O)=O)cs1` [FAMOTIDINE], the AC50 in [1] and in test [2] was greater than 10 µM each time.

As for `NS(=O)(=O)c1cc2c(cc1Cl)NCNS2(=O)=O` [HYDROCHLOROTHIAZIDE], the AC50 in test [1] and in [2] was greater than 10 µM throughout.

Turning to `CCOC(=O)[C@H](CCc1ccccc1)N[C@@H](C)C(=O)N1CCC[C@H]1C(=O)O`, the AC50 in test [1] and in test [2] was greater than 10 µM in each case.

`CC(=O)OCC(=O)[C@@]1(O)CC[C@H]2[C@@H]3CCC4=CC(=O)CC[C@]4(C)[C@H]3C(=O)C[C@@]21C` [CORTISONE ACETATE] showed an AC50 in test [3] greater than 30 µM.

As for `CC(C(=O)O)c1ccc(N2CC=CC2)c(Cl)c1` (centres undefined) [PIRPROFEN], the AC50 on Histamine H1 receptor [4] and at Histamine H1 receptor [5] was greater than 30 µM each time.

`Nc1nc(N)c2nc(-c3ccccc3)c(N)nc2n1`: the concentration at half-maximal activity (AC50) was greater than 30 µM in [6]; greater than 10 µM in test [1]; greater than 30 µM in test [7]; greater than 10 µM in test [2]; greater than 30 µM on D(1A) dopamine receptor [8].

As for `CC(C)C(=O)Nc1ccc([N+](=O)[O-])c(C(F)(F)F)c1` [FLUTAMIDE], the AC50 (in test [6]; in [7]; on D(1A) dopamine receptor [8]) was greater than 30 µM throughout.

For the compound `CO/N=C(\C(=O)N[C@@H]1C(=O)N2C(C(=O)[O-])=C(C[N+]3(C)CCCC3)CS[C@H]12)c1csc(N)n1`, the AC50 (in [9]; in test [10]; on D(1A) dopamine receptor [11]) was greater than 300 µM throughout.

Consider `NC(=O)c1cnccn1` [PYRAZINAMIDE], for which the AC50 (in test [6]; in test [7]; on D(1A) dopamine receptor [8]) was greater than 30 µM in each case.

For the compound `CC(=O)c1ccc2c(c1)N(CCCN1CCN(CCO)CC1)c1ccccc1S2` [ACETOPHENAZINE], the AC50 on D(1A) dopamine receptor [11] amounted to 1.11 µM; on D(1A) dopamine receptor [8], 0.1 µM.

For the compound `COC(=O)[C@@H]1CC2=CC(=O)CC[C@]2(C)[C@@]23O[C@@H]2C[C@@]2(C)[C@@H](CC[C@@]24CCC(=O)O4)[C@H]13` [EPLERENONE], the AC50 (in test [9]; at Histamine H1 receptor [4]; at Histamine H1 receptor [5]; in test [10]; on D(1A) dopamine receptor [11]) was greater than 30 µM in each case.

For the compound `Cc1cc2c(cc1CC(=O)c1sccc1S(=O)(=O)Nc1onc(C)c1Cl)OCO2` [SITAXENTAN], the AC50 (on D(1A) dopamine receptor [12]; in test [3]) was greater than 30 µM in each case.

Regarding `C#C[C@]1(O)CC[C@H]2[C@@H]3CCc4cc(O)ccc4[C@H]3CC[C@@]21C` [ETHINYL ESTRADIOL], the half-maximal activity concentration (AC50) in test [13] and in test [14] was greater than 30 µM in each case.

For `OC[C@@H](O)[C@@H](O)[C@H](O)[C@H](O)CO` [MANNITOL], the AC50 (at D(1A) dopamine receptor [12]; in [3]) was greater than 30 µM throughout.

For the compound `CC(C)NNC(=O)c1ccncc1` [IPRONIAZID], the AC50 (in [9]; in [10]; at D(1A) dopamine receptor [11]) was greater than 30 µM in each case.

Regarding `Oc1ncnc2[nH]ncc12` [ALLOPURINOL], the AC50 (in [6]; in test [7]; on D(1A) dopamine receptor [8]) was greater than 30 µM in each case.

For the compound `O=C(CCCCCCC(=O)Nc1ccccc1)NO` [VORINOSTAT], the figures for the AC50 (on Histamine H1 receptor [4]; at Histamine H1 receptor [5]; in test [1]) were greater than 30 µM, greater than 30 µM and greater than 10 µM, respectively.

Take `CC(C)Cc1ccc(CC(=O)O)cc1` [IBUFENAC]: the AC50 (in test [9]; in test [10]; on D(1A) dopamine receptor [11]) was greater than 30 µM in each case.

For the compound `CCC(=O)O[C@H]1[C@H](O[C@@H]2[C@@H](C)[C@H](O[C@H]3C[C@@](C)(OC)[C@@H](O)[C@H](C)O3)[C@@H](C)C(=O)O[C@H](CC)[C@@](C)(O)[C@H](O)[C@@H](C)C(=O)[C@H](C)C[C@@]2(C)O)O[C@H](C)C[C@@H]1N(C)C` [ERYTHROMYCIN PROPIONATE], the values for the AC50 (on D(1A) dopamine receptor [12]; in test [3]) were 17 µM and greater than 30 µM, respectively.

Turning to `COc1ccc2c(c1)C(=O)N(CCc1ccc(S(=O)(=O)NC(=O)NC3CCCCC3)cc1)C(=O)C2(C)C` [GLIQUIDONE], the AC50 in test [13] and in test [14] was greater than 30 µM throughout.

On to `O=C(NC[C@H]1CN(c2ccc(N3CCOCC3=O)cc2)C(=O)O1)c1ccc(Cl)s1` [RIVAROXABAN], for which the AC50 in [13] and in test [14] was greater than 30 µM each time.
